Columns and labels:
Assay type in all cases: physicochemical
[1] = in-vitro drug-releasing profile of HBA; details: FIG. 18
[2] = in vitro DOX release through cellulose membrane into PBS buffer
Protocol: The DOX release was measured according to the following: the in vitro experiments of the DOX releasing were performed using a cellulose membrane (Sigma-Aldrich, avg. flat width 10 mm (0.4 in.)). The released DOX amount from the bare and conjugated form was spectrophotometrically measured by monitoring the change in the intensity of the characteristic absorbance peak of DOX at λ=481 nm. DOX concentration is directly proportional to the maximal absorption values estimated at 481 nm [CDOX (mg/ml) (A at 481 nm)/18.836; R^2=0.996], according to the calibration curve previously determined within the range of 0-0.066 mg/ml. Solid powder of pure drug and conjugated form (corresponding to 0.045 mg/ml of DOX) were inserted in a cellulose membrane that was closed and dropped into 20 ml of a PBS buffer solution with pH=7.4 (37° C.; 0.9 wt % NaCl content). 3 ml of the aqueous solution was pulled from the release media at selected interval times and DOX concentration was measured. The release profiles of DOX released from different forms are shown in FIG. 14a in percent form and FIG. 14b in concentration form, releasing from the bare DOX was too fast a process with a maximum releasing percent of 78%. […] According to Table 2, releasing from the bare DOX data were fitted with the Higuchi model that describes the drug release a diffusion process based on Fick's law which is square root time-dependent, assumes the diffusivity of the drug is constant.

[3] = in-vitro drug-releasing profile of KETO; details: FIG. 17

Structure (SMILES): OCc1ccc(O)cc1 [Bare HBA, 4-hydroxybenzyl alcohol]
- HBA releasing process [1]: very rapid release process for the first 3 h

Structure (SMILES): COc1cccc2c1C(=O)c1c(O)c3c(c(O)c1C2=O)C[C@@](O)(C(=O)CO)C[C@@H]3O[C@H]1C[C@H](N)[C@H](O)[C@H](C)O1 [Pure DOX, doxorubicin]
- concentration of DOX in PBS buffer solution after one day (decomposition) ([2]; PBS at 37° C., after one day of release): continuously decreased
- maximum releasing percent ([2]; PBS pH=7.4, 37° C., 0.9 wt % NaCl, cellulose membrane): 78%
- First-order model k ([2]; fit of DOX release data): 0.2689
- Higuchi model k ([2]; fit of DOX release data): 36.808
- Hixson-Crowell model k ([2]; fit of DOX release data): 0.0063
- Korsmeyer-Peppas model k ([2]; fit of DOX release data): 26.18
- Korsmeyer-Peppas model n (release exponent) ([2]; fit of DOX release data): 0.763
- Zero-order model k ([2]; fit of DOX release data): 13.11

Structure (SMILES): CC(C(=O)O)c1cccc(C(=O)c2ccccc2)c1 (stereo not shown) [bare KETO, ketoprofen]
- KETO releasing process [3]: fast releasing process for the first 5 h

Reference: patent publication US20260108615A1, “SELF-ASSEMBLED MUCOADHESIVE BIOPOLYMER PARTICLE RELEASE SYSTEM AND PREPARATION METHOD THEREOF” (SZEGEDI TUDOMÁNYEGYETEM, priority 2021, published 2026)
